# Residues, ends and D or L forms follow the SMILES beside them.
# What was measured:
# [1] = biological target: T1, Kly18 (Karilysin catalytic domain) (Tannerella forsythia, UniProt D0EM77); assay: biochemical; settings: for Kly18 inhibitory activity, single concentration screen: 87 µM peptide
# T1 construct: Karilysin catalytic domain (Kly18) and intact Kly48 were produced as previously described; made in house
# Method: (§1) Kly18 and Kly48 protease activities were monitored essentially as described. One hundred µl working volumes were used in black untreated polypropylene microtitre plates and FITC-casein was used as the substrate. Assays were performed at 37°C using 500 nM of Kly18 (or Kly48) in assay buffer (100 mM Tris-HCl, 5mM CaCl2, pH 8.0), at a FITC-casein concentration of 25 µg/ml. […] Peptides were dissolved in Milli Q water and added in varying molarities. The assay setup was as follows; Kly18 (or Kly48) was diluted in assay buffer together with peptide, followed by 30 minutes incubation on a vertical shaker at 22°C. Then FITC-casein was added and fluorescence formation was monitored at 37°C for 90 minutes with measurements every ten minutes.
# [2] = biological target: T2, Karilysin (Kly48) (Tannerella forsythia, UniProt D0EM77); assay: Auto-processing of Kly48 monitored by SDS-PAGE; type: biochemical; settings: Kly48 13 µM, peptide 455 µM, 37°C, 50 mM Tris-HCl, 2.5 mM CaCl2, pH 8.0, up to 48 hours
# T2 construct: made in house
# Method: Karilysin (Kly48) at 13 µM was incubated at 37°C in 50 mM Tris-HCl, 2.5 mM CaCl2, 0.02% NaN3 pH 8.0 alone or in the presence of the peptide SWFPL at 455 µM. At different time points samples were withdrawn and the Kly48 autocatalytic processing was monitored by SDS-PAGE using 10% gels and the Tris-HCl/Tricine buffer system. Gels were stained with 0.1% Coomassie Brilliant Blue R-250 in 10% acetic acid followed by destaining. Samples were run alongside a Low Molecular Weight SDS-PAGE Marker.
# [3] = biological target: T3, intact Karilysin (Kly48) (Tannerella forsythia, UniProt D0EM77); assay: Kly48 protease activity assay with FITC-casein substrate; type: biochemical; settings: 500 nM Kly48, FITC-casein, peptide 2.3 µM to 55.6 µM; three experiments
# T3 construct: made in house
# Method: as §1
# [4] = biological target: T1, Kly18 (Karilysin catalytic domain); settings: cited from earlier work
# From the text: The development of MMP inhibitors is highly relevant, due to the involvement of MMPs in several pathologies. Some candidate molecules act by blocking the MMP-active sites via binding to the catalytic Zn^2+ through chelators such as hydroxamate. These approaches have been successful for MMP inhibition. However, the inhibitors have a broad specificity towards other MMPs due to very similar active site geometries of matrix metalloproteinases. An alternative approach to specific MMP inhibitor design is to utilize larger molecules, such as peptides, that interact with the activ ...
# T1 sequence (D0EM77 35-195): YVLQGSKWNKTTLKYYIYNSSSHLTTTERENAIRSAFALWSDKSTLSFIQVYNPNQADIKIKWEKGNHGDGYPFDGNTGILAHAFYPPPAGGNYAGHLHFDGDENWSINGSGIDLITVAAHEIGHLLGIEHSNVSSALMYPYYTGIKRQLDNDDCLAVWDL
# T3 sequence (D0EM77 35-472): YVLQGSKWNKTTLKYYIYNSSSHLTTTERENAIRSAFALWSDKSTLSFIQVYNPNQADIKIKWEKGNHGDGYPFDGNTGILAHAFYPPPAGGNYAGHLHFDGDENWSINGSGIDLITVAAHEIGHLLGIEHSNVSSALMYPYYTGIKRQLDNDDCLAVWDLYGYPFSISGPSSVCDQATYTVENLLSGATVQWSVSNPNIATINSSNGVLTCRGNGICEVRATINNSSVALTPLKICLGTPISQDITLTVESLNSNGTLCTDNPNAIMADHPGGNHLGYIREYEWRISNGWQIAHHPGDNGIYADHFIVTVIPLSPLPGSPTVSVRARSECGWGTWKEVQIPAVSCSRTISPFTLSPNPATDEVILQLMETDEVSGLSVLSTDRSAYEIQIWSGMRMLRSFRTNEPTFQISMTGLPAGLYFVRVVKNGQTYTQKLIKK
# T2 sequence (D0EM77 35-472): as above
molecule,measurement,setting,value
(NH2)-WFPLR-(CONH2) [15-14],"Kly18 inhibitory activity, single concentration screen",[1]; FITC-casein substrate,lost most or all of their Kly18 inhibition capacity
"H-SWFPL-NH2 [15-6, (NH2)-SWFPL-(CONH2)]",Effect on Kly48 auto-processing to Kly38 and Kly18,[2],inhibited the auto-processesing efficiently
same,Inhibition of Kly48 proteolytic activity (dose-response),[3],clear dose-response inhibition
same,Ki,[1],8.36 ± 2.34 µM
(NH2)-WFPL-(CONH2) [15-15],"Kly18 inhibitory activity, single concentration screen",[1]; FITC-casein substrate,lost most or all of their Kly18 inhibition capacity
(NH2)-WFP-(CONH2) [15-8],"Kly18 inhibitory activity, single concentration screen",[1]; FITC-casein substrate,lost most or all of their Kly18 inhibition capacity
same,"Kly18 inhibitory activity, single concentration screen","[1]; FITC-casein substrate, listed as (NH2)-WFP-(CONH2)",completely inactive
"H-SWFPLR-NH2 [15-5, (NH2)-SWFPLR-(CONH2)]",Ki,[1],6.52 ± 0.88 µM
H-SWAPLRSGGGS-NH2 [15-16],"Kly18 inhibitory activity, single concentration screen",[1]; FITC-casein substrate,inactive
H-WFPLRSGGG-NH2 [15-10],"Kly18 inhibitory activity, single concentration screen",[1]; FITC-casein substrate,lost most or all of their Kly18 inhibition capacity
"NC(=O)[C@@H]1CCCN1C(=O)[C@H](Cc1ccccc1)NC(=O)[C@H](Cc1c[nH]c2ccccc12)NC(=O)[C@@H](N)CO [15-7, (NH2)-SWFP-(CONH2)] (H-SWFP-NH2)",Ki,[1],10.7 ± 2.25 µM
same,"Kly18 inhibitory activity, single concentration screen",[1]; FITC-casein substrate,retained efficient inhibitory potency
"c1cnc2c(c1)ccc1cccnc12 [1,10-phenanthroline]",Inhibition of Kly18 by small molecule chelators,[4],inhibited
H-WFPLRSGG-NH2 [15-11],"Kly18 inhibitory activity, single concentration screen",[1]; FITC-casein substrate,lost most or all of their Kly18 inhibition capacity
"H-SAAALRSGGGS-NH2 [control peptide, control peptide with the WFP motif replaced by a triple alanine, reference compound]",Kly18 inhibition at very high dose,"[1]; 174 µM peptide, FITC-casein substrate, two experiments",curve similar to that of Kly18 with no peptide present
H-WFPLRSG-NH2 [15-12],"Kly18 inhibitory activity, single concentration screen",[1]; FITC-casein substrate,lost most or all of their Kly18 inhibition capacity
H-SWFPLRSGGGS-NH2 [15-0],Ki,[1],5.34 ± 0.51 µM
H-WFPLRS-NH2 [15-13],"Kly18 inhibitory activity, single concentration screen",[1]; FITC-casein substrate,lost most or all of their Kly18 inhibition capacity
O=C(O)CN(CCN(CC(=O)O)CC(=O)O)CC(=O)O [EDTA],Inhibition of Kly18 by small molecule chelators,[4],inhibited
